Experimental data reported in article PMC10799935, “Discovery of a peripheral 5HT2A antagonist as a clinical candidate for metabolic dysfunction-associated steatohepatitis” (Nature Communications, 2024).
Values joined by “and” are separate entries in the source; they are usually repeats but may differ in a detail not shown here. Equal entries are not always repeated. “Also recorded” adds a separate entry of the source.

Tests used:
Assay type in all cases: in vivo, mouse
[1] = system: HFD-fed C57BL/6J mice; assay: DIO mice: quantification of hepatic triglyceride; conditions: DIO mice; for Hepatic TG levels, Mean Diff. (Vehicle vs. treated): Dunnett's multiple comparisons test; for Hepatic TG Levels, TG per protein, group mean: PO, liver
Procedure: Liver tissues were homogenized in 5% NP-40 using FastPrep-24. To solubilize fat, the homogenates were heated to 95 °C for 5 min and cooled at 23 °C, and repeated. Triglyceride Reagent (Sigma-Aldrich) or DW was added and incubated at 37 °C for 30 min to hydrolyze TG into glycerol. For the colorimetric assay of hydrolyzed TG levels, samples were incubated with Free Glycerol Reagent (Sigma-Aldrich) at 37 °C for 5 min. Differences in absorbance at 540 nm between hydrolyzed or non-hydrolyzed TG were quantified using a glycerol standard (Sigma-Aldrich). […]

[2] = system: HFD-fed C57BL/6J mice; assay: DIO mice: fasting glucose levels; conditions: PO, in mg/dL (unit assumed)
[3] = system: lipogenesis-related genes; assay: DIO mice: qRT-PCR of lipogenesis-related genes in liver; conditions: for Fasn gene expression, Predicted (LS) mean diff. / Htr2a gene expression, Predicted (LS) mean diff. / Pparγ gene expression, Predicted (LS) mean diff. / Srebp1c gene expression, Predicted (LS) mean diff.: Tukey's multiple comparisons test; for Fasn gene expression, Predicted (LS) mean / Htr2a gene expression, Predicted (LS) mean / Pparγ gene expression, Predicted (LS) mean / Srebp1c gene expression, Predicted (LS) mean: vehicle = 1
Procedure: Total RNA extractions from harvested tissues were performed using TRIzol according to the manufacturer’s protocol. After TURBO DNase (Invitrogen) treatment, 2 μg of total RNA was used to generate complementary DNA with a High-Capacity cDNA Reverse Transcription Kit (Thermo Fisher Scientific). Quantitative RT-PCR was performed with Fast SYBR Green Master Mix (Thermo Fisher Scientific) and a Viia 7 Real-time PCR System (Thermo Fisher Scientific) according to the manufacturer’s instructions. Gene expression was relatively quantified based on the delta-delta Ct (threshold cycle) method with the beta-actin gene as a reference gene. The sequence of primers can be found in the Supporting Information (Supplementary Table 2).

Structure (SMILES): Cc1nc2n(c(=O)c1CCN1CCC(=C3c4ccc(Cl)cc4CCc4cccnc43)CC1)CCCC2O (stereo not shown) [Compound 11c]
- Hepatic TG levels, Mean Diff. (Vehicle vs. treated) ([1]; 5mpk): 5.95 mg/g protein
- Hepatic TG levels, Mean Diff. (Vehicle vs. treated) ([1]; 10mpk): 31.37 mg/g protein
- Hepatic TG Levels, TG per protein, group mean ([1]; 5mpk): 79.94 mg/g protein
- Hepatic TG Levels, TG per protein, group mean ([1]; 10mpk): 54.51 mg/g protein
- hepatic TG concentration ([1]; vs vehicle): significant reduction; also recorded: decreased
- 6hr Fasting Glucose Levels, Average 7W ([2]; 5mpk, group mean): 158.2
- 6hr Fasting Glucose Levels, Average 7W ([2]; 5mpk, individual animals, 5 mg/kg): 172.5 and 172.0 and 150.5 and 154.0 and 119.5 and 188.0 and 151.0
- 6hr Fasting Glucose Levels, Blood Glucose Level ([2]; 5mpk, 2021.03.29, duplicate readings of individual animals, 5 mg/kg): 173.0 and 172.0 and 155.0 and 189.0 and 149.0 and 152.0 and 158.0 and 150.0 and 127.0 and 112.0 and 181.0 and 195.0 and 140.0 and 162.0
- 6hr Fasting Glucose Levels, Average 7W ([2]; 10mpk, group mean): 134.9
- 6hr Fasting Glucose Levels, Average 7W ([2]; 10mpk, individual animals, 10 mg/kg): 116.0 and 126.0 and 147.5 and 160.5 and 170.0 and 89.5
- 6hr Fasting Glucose Levels, Blood Glucose Level ([2]; 10mpk, 2021.03.29, duplicate readings of individual animals, 10 mg/kg): 117.0 and 115.0 and 121.0 and 131.0 and 148.0 and 147.0 and 163.0 and 158.0 and 171.0 and 169.0 and 89.0 and 90.0
- Fasn gene expression, Predicted (LS) mean diff. ([3]; 11c 5mpk vs. 11c 10mpk): 0.1848
- Htr2a gene expression, Predicted (LS) mean diff. ([3]; 11c 5mpk vs. 11c 10mpk): 0.09643
- Pparγ gene expression, Predicted (LS) mean diff. ([3]; 11c 5mpk vs. 11c 10mpk): -0.1385
- Srebp1c gene expression, Predicted (LS) mean diff. ([3]; 11c 5mpk vs. 11c 10mpk): 0.2716
- Fasn gene expression, Predicted (LS) mean ([3]; 11c 5mpk): 0.7446
- Htr2a gene expression, Predicted (LS) mean ([3]; 11c 5mpk): 0.5102
- Pparγ gene expression, Predicted (LS) mean ([3]; 11c 5mpk): 0.8935
- Srebp1c gene expression, Predicted (LS) mean ([3]; 11c 5mpk): 0.7676
- Fasn gene expression, Predicted (LS) mean ([3]; 11c 10mpk): 0.5598
- Htr2a gene expression, Predicted (LS) mean ([3]; 11c 10mpk): 0.4138
- Pparγ gene expression, Predicted (LS) mean ([3]; 11c 10mpk): 1.032
- Srebp1c gene expression, Predicted (LS) mean ([3]; 11c 10mpk): 0.496
- expression of Fasn ([3]; DIO mice, 10mpk): decreased
- expression of Srebp1c ([3]; DIO mice, 10mpk): reduced
- expression of lipogenesis-related genes ([3]; DIO mice, liver, vs vehicle): reduced
- Fasn gene expression, Predicted (LS) mean diff. ([3]; Vehicle vs. 11c 5mpk): 0.2554
- Htr2a gene expression, Predicted (LS) mean diff. ([3]; Vehicle vs. 11c 5mpk): 0.4898
- Pparγ gene expression, Predicted (LS) mean diff. ([3]; Vehicle vs. 11c 5mpk): 0.1065
- Srebp1c gene expression, Predicted (LS) mean diff. ([3]; Vehicle vs. 11c 5mpk): 0.2324
- Fasn gene expression, Predicted (LS) mean diff. ([3]; Vehicle vs. 11c 10mpk): 0.4402
- Htr2a gene expression, Predicted (LS) mean diff. ([3]; Vehicle vs. 11c 10mpk): 0.5862
- Pparγ gene expression, Predicted (LS) mean diff. ([3]; Vehicle vs. 11c 10mpk): -0.03198
- Srebp1c gene expression, Predicted (LS) mean diff. ([3]; Vehicle vs. 11c 10mpk): 0.504
